Source: patent US20200129499A1, “COMBINATION OF TASQUINIMOD OR A PHARMACEUTICALLY ACCEPTABLE SALT THEREOF AND A PD-1 AND/OR PD-L1 INHIBITOR, FOR USE AS A MEDICAMENT” (ACTIVE BIOTECH AB, priority 2015, published 2020)
“Also recorded” adds a separate entry of the source.

Experiments:
Type in all cases: in vivo, mouse
MBT-2 tumors [1] = assay: Differential mRNA expression (qRT-PCR) in established MBT-2 tumors (Table S1)
Method: The relative mRNA expression of different genes was examined in MBT-2 tumors of treated animals with tasquinimod as compared to control group. Treatment started at day 11 post-tumor cell inoculation and qRT-PCR analysis was performed at day 15. Results are represented as mean fold-change compared with control. P values were evaluated using student test.
RNA extraction of murine CD1 1b+ was performed using the PicoPure® RNA Isolation Kit (Life Technologies). RNA in tumors was isolated from 100 μ ? -thick cryosections of OCT-embedded tumors using Trizol Reagent (Life Technologies). cDNAs were prepared using the High-Capacity cDNA Reverse Transcription Kit (Life Technologies) following the manufacturer's instructions. cDNA from CD1 1b+ isolated cells was pre-amplified (14 cycles) using the TaqMan PreAmp Master Mix (Life Technologies). Real time PCR (q-PCR) was performed with a two-step PCR protocol (95° C. for 10 min, followed by 40 cycles at 95° C. for 15 s and 60° C. for 1 min) using Taqman gene expression (Life Technologies). The probes that were used are documented in Table S2. Hmbs was used as “housekeeping” gene whose expression was correlated to other housekeeping quantified genes (e.g. Cyclophilin A). Expression levels were calculated as normalized ACt expression values between target gene and “housekeeping” genes.

MBT-2 tumors [2] = assay: Subcutaneous MBT-2 tumor model, early or established tumors (Examples 3 and 4)
Method: FIG. 4: Treatment with tasquinimod had no effect on established MBT-2 tumor growth and induced an alteration in the profile of PD-1/PD-L1 axis. (A) Growth curves and (B) tumor weight of MBT-2 tumors treated with tasquinimod at 30 mg/kg (oral gavage, twice daily) after randomization at day 11 post tumor-cell inoculation (n=12). Mice were sacrificed. Tumors were harvested, digested and then subjected to surface staining. (C) PD-L1 expression on myeloid cells treated with vehicle (control) or tasquinimod 30 mg/kg at day 15. (D) Quantitative data of the Median Fluorescence Intensity of PD-L1 gated on infiltrating myeloid cells CD1 1b+ (*, P<0.05; Mann-Whitney test, n=5 mice per group).
FIG. 5: 106 MBT-2 cells were injected subcutaneously in C3H/HeNRj mice. Animals were treated with Anti-PD-L1 or its isotype (IgG2B) at the dose of 200 μg by intraperitoneal injection. Treatment started at (A) day 1 (Student test; left panel: *, P=0.0223), or (B) day 11 post tumor cell inoculation. […]
MBT-2 cells (1×106) were injected subcutaneously into the flanks of mice and resulting tumors were allowed to grow for 21 days. Tumors were measured by caliper and tumor volume (mm3) was calculated using the formula=(Width) 2×Length 12. […]

MBT-2 tumor cells = assay: Survival in orthotopic MBT-2 bladder tumor model; conditions: tasquinimod 30 mg/kg twice a day 21 days; Anti-PD1 10 mg/kg i.p. twice weekly; control 29 days; FIG. 9
Method: FIG. 9: MBT-2 tumor cells were injected orthotopically into female C3H/HeJ mice. Briefly, after a period of 4-hour of water deprivation, mice were anaesthetized using a mix of Ketamine and Xylazine. A catheter (ref: 381212 24G, BD Insyte) was inserted in the bladder through the urethra and 30 μI 0.1 N HCl was injected for 15 seconds, then replaced by 30 μI 0.1 N NaOH for 15 seconds. MBT-2 tumor cells (2×1 06) were instilled into the bladder for 45 minutes. The treatment was initiated at day 3. Tasquinimod was given at the dose of 30 mg/kg by oral gavage twice a day for 21 consecutive days. Anti-PD1 (clone: RMP1-14) or its isotype control (clone 2A3) was injected by intraperitoneal route at the dose of 10 mg/kg twice weekly for two consecutive weeks (at D4, D7, D11 and D14). The survival of MBT-2 tumor-bearing mice treated with anti-PD1, tasquinimod, the combination, or IgG control are shown in FIG. 9 (n=13). Dunnet-Hsu test was used to compare overall survival between groups.

PD-1 = PD-1 expression level after tasquinimod treatment (data not shown); conditions: established MBT-2 tumors
[3] = tasquinimod 30 mg/kg from day 11, qRT-PCR at day 15

Structure (SMILES): COc1cccc2c1c(O)c(C(=O)N(C)c1ccc(C(F)(F)F)cc1)c(=O)n2C [tasquinimod, 4-hydroxy-5-methoxy-N,1-dimethyl-2-oxo-N-[4-(trifluoromethyl)phenyl]-1,2-dihydroquinoline-3-carboxamide]
- mRNA expression of PD-L1 in MBT-2 tumors (MBT-2 tumors [1]; established tumors, tasquinimod 30 mg/kg): increased
- Fold change tasquinimod/control, CCL5 mRNA (MBT-2 tumors [1]; [3]): 0.88
- Fold change tasquinimod/control, CCL7 mRNA (MBT-2 tumors [1]; [3]): 0.90
- Fold change tasquinimod/control, Ccl2 mRNA (MBT-2 tumors [1]; [3]): 0.86
- Fold change tasquinimod/control, Cd274/PD-L1 mRNA (MBT-2 tumors [1]; [3]): 1.46
- Fold change tasquinimod/control, Cxcl5 mRNA (MBT-2 tumors [1]; [3]): 2.31
- Fold change tasquinimod/control, Cxcl9 mRNA (MBT-2 tumors [1]; [3]): 0.80
- Fold change tasquinimod/control, Cxcl11 mRNA (MBT-2 tumors [1]; [3]): 1.63
- Fold change tasquinimod/control, II-12b mRNA (MBT-2 tumors [1]; [3]): 1.71
- Fold change tasquinimod/control, Ifng mRNA (MBT-2 tumors [1]; [3]): 1.53
- Fold change tasquinimod/control, Mrc1/CD206 mRNA (MBT-2 tumors [1]; [3]): 0.90
- Fold change tasquinimod/control, Nos2 mRNA (MBT-2 tumors [1]; [3]): 1.76
- Fold change tasquinimod/control, Serpinb2 mRNA (MBT-2 tumors [1]; [3]): 3.65
- Fold change tasquinimod/control, Tnf mRNA (MBT-2 tumors [1]; [3]): 1.19
- tumor growth (tumor volume, mean±SEM) (MBT-2 tumors [2]; established tumors, treatment from day 8, FIG. 6B): 343±67 mm3
- tumor growth of established MBT-2 tumors (MBT-2 tumors [2]; treatment started at tumor volume 50-100 mm3, tasquinimod 30 mg/kg twice daily, Anti-PD-L1 200 μg i.p.): no effect; also recorded: lost its ability to inhibit tumor growth
- median survival of mice (MBT-2 tumor cells): 27 days
- expression level of PD-1 (PD-1): not changed
